For data set [1] the following is noted: reported in WO 2013/059194; cited from earlier work.
The conditions of data set [2]: pH 7.4.
For data set [3] the following is noted: pH 7.4. This is another data set of the same source.
Data set [4] can be described thus: UV-vis method for pKa determination of compound 4 (Example 20). In kind it is physicochemical. To be noted: 0.10 M phosphate buffer, 25° C., read-out: pKa (ring nitrogen proton). The protocol: A 1 mM solution of compound 4 is prepared in acetonitrile. To a cuvette containing 3.0 mL of 0.10 M phosphate buffer of the desired pH at 25° C. is added 50 μL of the compound 4 solution. The solution is mixed quickly by rapidly drawing up and dispensing the solution with a pipette. Absorbance spectra are collected immediately after the solution has mixed and settled.

Data set [5] in a line: physchem. The following applies: buffer, pH 7.4.
Data set [6] can be described thus: physchem. To be noted: buffer, pH 7.4. This is another data set of the same source.

Marks after values point to notes of the source that are not given here. Bounds are passed on as bounds.

Regarding `CCC1(NO)C(=O)N(C)C(=O)N(C)C1=O` [5-ethyl HABA, 5-(N-hydroxylamine)-5-ethyl-N,N-dimethylbarbituric acid], the HNO production result in data set [1] is on record as “less than the desired amount of HNO”.

For the molecule `CN1C(=O)N(C)C(=O)C(Cc2ccccc2)(NO)C1=O` [Compound 1, 5-(N-hydroxylamino)-5-benzyl-N,N-dimethylbarbituric acid], the melting point fell in the range of 155 to 157 °C. Moreover, in data set [2], the HNO yield is recorded as 99^d; the “k (rate of disappearance of compound and appearance of BA byproduct, single exponential fit)” value stood at 0.00031 s⁻¹. Also, the “k (rate of appearance of BA byproduct, single exponential fit)” value in data set [3] came out at 0.00015 s⁻¹.

For the molecule `COc1ccc(CC2(NO)C(=O)N(C)C(=O)N(C)C2=O)cc1` [Compound 2, 5-(N-hydroxylamino)-5-(4-methoxybenzyl)-N,N-dimethylbarbituric acid], the melting point lay in the range of 108 to 110 °C. Besides, in data set [2], the HNO yield is reported as 96^d; the “k (rate of disappearance of compound and appearance of BA byproduct, single exponential fit)” value amounted to 0.00015 s⁻¹. Besides, the “k (rate of appearance of BA byproduct, single exponential fit)” value in data set [3] came out at 8e-05 s⁻¹.

`CN1C(=O)N(C)C(=O)C(Cc2ccc(Cl)cc2)(NO)C1=O` [Compound 3, 5-(N-hydroxylamino)-5-(4-chlorobenzyl)-N,N-dimethylbarbituric acid] displayed a melting point of 155 to 157 °C. Also, in data set [2], the HNO yield is 92^d; the “k (rate of disappearance of compound and appearance of BA byproduct, single exponential fit)” value came out at 0.0006 s⁻¹. The “k (rate of appearance of BA byproduct, single exponential fit)” value in data set [3] is 0.00025 s⁻¹.

`CCC1(NO)C(=O)NC(=O)NC1=O` [Compound 4, 5-(N-hydroxylamino)-5-ethyl-barbituric acid]: the melting point was over 300 °C. Also, in data set [4], the pKa is about 7.4. Also, in data set [2], the HNO yield was 97^d; the “k (rate of disappearance of compound and appearance of BA byproduct, single exponential fit)” value worked out at 0.00011 s⁻¹. The “k (rate of appearance of BA byproduct, single exponential fit)” value in data set [3] was found to be 3.7e-05 s⁻¹.

As to `O=C1NC(=O)C(Cc2ccccc2)(NO)C(=O)N1` [Compound 5, 5-(N-hydroxylamino)-5-benzyl-barbituric acid], the “k (rate of appearance of BA byproduct, single exponential fit)” value in data set [3] came to 0.00013 s⁻¹. Further, the half-life in the data set “physchem [5]” is 1.53 h.

With `COc1ccc(CC2(NO)C(=O)NC(=O)NC2=O)cc1` [Compound 6, 5-(N-hydroxylamino)-5-(4-methoxybenzyl)-barbituric acid], the “k (rate of appearance of BA byproduct, single exponential fit)” value in data set [3] came to 8.8e-05 s⁻¹. This molecule also registered a half-life in the data set “physchem [5]” of 2.2 h.

`O=C1NC(=O)C(Cc2ccc(Cl)cc2)(NO)C(=O)N1` [Compound 7, 5-(N-hydroxylamino)-5-(4-chlorobenzyl)-barbituric acid]: in data set [3], the “k (rate of appearance of BA byproduct, single exponential fit)” value worked out at 0.00016 s⁻¹. Further, in the data set “physchem [5]”, the half-life came to 1.18 h.

Turning to `O=C1NC(=O)C(NO)(c2ccccc2)C(=O)N1` [Compound 8, 5-(N-hydroxylamino)-5-phenyl-barbituric acid], the “k (rate of appearance of BA byproduct, single exponential fit)” value in data set [3] stood at 0.00082 s⁻¹. This molecule gave a half-life in the data set “physchem [5]” of 0.233 h.

Consider `C=CCC1(NO)C(=O)NC(=O)NC1=O` [Compound 9, 5-(N-hydroxylamino)-5-(2-propen-1-yl)-barbituric acid], for which, in data set [3], the “k (rate of appearance of BA byproduct, single exponential fit)” value worked out at 0.00013 s⁻¹. The molecule further displayed a half-life in “physchem [5]” of 1.5 h.

Consider `CC(C)CC1(NO)C(=O)NC(=O)NC1=O` [Compound 10, 5-(N-hydroxylamino)-5-(2-methylpropyl)-barbituric acid], for which the “k (rate of appearance of BA byproduct, single exponential fit)” value in data set [3] came out at 0.0005 s⁻¹. The molecule further yielded a half-life in the data set “physchem [5]” of 0.383 h.

In turn, `CC(C)C1(NO)C(=O)NC(=O)NC1=O` [Compound 11, 5-(N-hydroxylamino)-5-(1-methylethyl)-barbituric acid] had a half-life in “physchem [6]” of 62.4 h. In data set [2], the HNO yield turned out to be 98; the “k (rate of disappearance of compound and appearance of BA byproduct, single exponential fit)” value worked out at 3.1e-06 s⁻¹.

For `CCCC(C)C1(NO)C(=O)NC(=O)NC1=O` (stereo not drawn) [Compound 12, 5-(N-hydroxylamino)-5-(1-methylbutyl)-barbituric acid], in the data set “physchem [6]”, the half-life was 38.5 h. Moreover, in data set [2], the HNO yield is 102; the “k (rate of disappearance of compound and appearance of BA byproduct, single exponential fit)” value turned out to be 5e-06 s⁻¹.

Take `O=C1NC(=O)C(Cc2ccccc2Cl)(NO)C(=O)N1` [Compound 14, 5-(N-hydroxylamino)-5-(2-chlorobenzyl)-barbituric acid]: the “k (rate of appearance of BA byproduct, single exponential fit)” value in data set [3] came out at 0.00029 s⁻¹. In the data set “physchem [5]”, this molecule showed a half-life of 0.683 h.

Turning to `O=C1NC(=O)C(Cc2cccs2)(NO)C(=O)N1` [Compound 16, 5-(N-hydroxylamino)-5-(2-thienylmethyl)-barbituric acid], the “k (rate of appearance of BA byproduct, single exponential fit)” value in data set [3] was found to be 0.00029 s⁻¹. The half-life in “physchem [5]” was determined as 0.667 h.

Take `CC1(NO)C(=O)NC(=O)NC1=O` [Compound 17, 5-(N-hydroxylamino)-5-methyl-barbituric acid]: in data set [3], the “k (rate of appearance of BA byproduct, single exponential fit)” value is 0.00025 s⁻¹. In “physchem [5]”, the half-life was 0.767 h.

Turning to `CCC(C)C1(NO)C(=O)NC(=O)NC1=O` (stereo not drawn) [Compound 18, 5-(N-hydroxylamino)-5-(1-methylpropyl)-barbituric acid], in the data set “physchem [6]”, the half-life came to 32.9 h. In data set [2], the HNO yield came to 102; the “k (rate of disappearance of compound and appearance of BA byproduct, single exponential fit)” value was found to be 5.9e-06 s⁻¹.

The values are drawn from patent publication US9464061B2, “N-hydroxylamino-barbituric acid derivatives” (priority 2014, dated 2016).
